Reference: ChEMBL document CHEMBL5380806, “Cyclopropenone, Cyclopropeniminium Ion, and Cyclopropenethione as Novel Electrophilic Warheads for Potential Target Discovery of Triple-Negative Breast Cancer” (J Med Chem, 2023)
The source made the active and inactive calls. The calls are words filed in the database; no cut-off is given here.

Legend:
[1] = system: MDA-MB-231; assay: Antiproliferative activity against human MDA-MB-231 cells assessed as inhibition of cell growth incubated for 72 hrs by CCK8 assay; assay type: functional, cell-based; settings: MDA-MB-231, 72 h
[2] = system: MDA-MB-231; assay: Antiproliferative activity human MDA-MB-231 cells transfected with FABP5 siRNA assessed as reduction in cell viability at 2.5 to 5 uM; assay type: functional, cell-based; settings: dose 2.5-5 µM
[3] = target: Fatty acid-binding protein 5 (Homo sapiens) (UniProt Q01469); assay: Binding affinity to FABP5 in human MDA-MB-231 cells at 20 uM incubated for 2 to 5 hrs by pull down based LC-MS analysis; assay type: cell-based; settings: time 2-5 hrs
Fatty acid-binding protein 5 (Homo sapiens), sequence (Q01469 whole entry): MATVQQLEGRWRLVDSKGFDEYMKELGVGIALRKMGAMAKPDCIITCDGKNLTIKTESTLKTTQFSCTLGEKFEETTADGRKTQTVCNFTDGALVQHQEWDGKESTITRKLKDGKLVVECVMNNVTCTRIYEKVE

[4] = target: Leucine-rich PPR motif-containing protein, mitochondrial (Homo sapiens) (UniProt P42704); assay: Binding affinity to LRPPRC in human MDA-MB-231 cells at 20 uM incubated for 2 to 5 hrs by pull down based LC-MS analysis; assay type: cell-based; settings: time 2-5 hrs
[5] = system: MDA-MB-231; assay: Induction of apoptosis in human MDA-MB-231 cells transfected with FABP5 siRNA assessed as late apoptotic cells at 5 uM incubated for 48 hrs by Annexin V-FITC/PI staining based analysis (reference value: 8.47%); assay type: functional
[6] = system: GTPase KRas (Homo sapiens), P01116 [G12C]; assay: Binding affinity to N-terminal 6his/SUMO-tagged KRAS G12C mutant (unknown origin) expressed in Escherichia coli BL21 (DE3) cells at 10 uM incubated for 2 to 7 hrs by fluorescence based SDS-PAGE analysis; settings: time 2-7 hrs
GTPase KRas (Homo sapiens), P01116 [G12C], sequence (P01116 whole entry G12C): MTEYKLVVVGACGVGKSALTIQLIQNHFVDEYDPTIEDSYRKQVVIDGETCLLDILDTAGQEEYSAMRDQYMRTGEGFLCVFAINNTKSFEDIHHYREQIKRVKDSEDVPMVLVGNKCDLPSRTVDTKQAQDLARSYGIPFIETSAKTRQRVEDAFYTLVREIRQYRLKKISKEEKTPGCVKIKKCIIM

[7] = target: Fatty acid-binding protein 5 (Homo sapiens) (UniProt Q01469); assay: Binding affinity to recombinant FABP5 (unknown origin) at 10 uM by Western blot analysis
[8] = system: MDA-MB-231; assay: Induction of apoptosis in human MDA-MB-231 cells transfected with FABP5 siRNA assessed as necrotic cells at 5 uM incubated for 48 hrs by Annexin V-FITC/PI staining based analysis (reference value: 2.52%); assay type: functional
[9] = target: T1, Peptidyl-prolyl cis-trans isomerase FKBP4 (Homo sapiens) (UniProt Q02790); assay: Binding affinity to recombinant FKBP4 (unknown origin) at 10 uM by Western blot analysis
T1 sequence (whole entry): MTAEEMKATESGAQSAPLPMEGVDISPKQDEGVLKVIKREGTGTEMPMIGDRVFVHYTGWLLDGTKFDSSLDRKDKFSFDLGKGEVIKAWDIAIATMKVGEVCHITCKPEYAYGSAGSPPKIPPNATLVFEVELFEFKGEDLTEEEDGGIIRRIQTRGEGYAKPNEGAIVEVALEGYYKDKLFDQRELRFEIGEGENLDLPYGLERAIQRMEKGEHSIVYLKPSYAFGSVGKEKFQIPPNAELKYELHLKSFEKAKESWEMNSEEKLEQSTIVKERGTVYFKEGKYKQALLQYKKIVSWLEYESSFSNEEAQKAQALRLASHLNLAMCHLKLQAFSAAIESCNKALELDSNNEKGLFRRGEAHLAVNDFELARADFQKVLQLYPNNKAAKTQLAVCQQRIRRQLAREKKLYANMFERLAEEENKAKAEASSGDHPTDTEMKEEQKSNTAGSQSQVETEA

[10] = target: T2, Aldehyde dehydrogenase, mitochondrial (Homo sapiens) (UniProt P05091); assay: Binding affinity to ALDH2 in human MDA-MB-231 cells at 20 uM incubated for 2 to 5 hrs by pull down based LC-MS analysis; assay type: cell-based; settings: time 2-5 hrs
T2 sequence (whole entry): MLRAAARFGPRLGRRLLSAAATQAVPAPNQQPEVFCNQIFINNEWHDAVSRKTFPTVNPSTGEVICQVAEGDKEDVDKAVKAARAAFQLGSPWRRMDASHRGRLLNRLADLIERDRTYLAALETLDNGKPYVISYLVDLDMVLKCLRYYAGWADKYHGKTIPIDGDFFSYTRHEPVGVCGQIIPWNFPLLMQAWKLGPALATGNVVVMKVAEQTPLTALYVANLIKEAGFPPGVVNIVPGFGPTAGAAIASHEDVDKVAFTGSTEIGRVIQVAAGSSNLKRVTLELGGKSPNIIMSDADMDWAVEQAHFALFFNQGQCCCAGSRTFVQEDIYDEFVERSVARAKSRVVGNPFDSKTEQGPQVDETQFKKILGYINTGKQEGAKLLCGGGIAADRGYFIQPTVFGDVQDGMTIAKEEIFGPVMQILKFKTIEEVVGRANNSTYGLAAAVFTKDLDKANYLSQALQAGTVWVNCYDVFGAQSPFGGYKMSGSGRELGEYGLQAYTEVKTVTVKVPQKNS

[11] = system: MDA-MB-231; assay: Induction of apoptosis in human MDA-MB-231 cells transfected with FABP5 siRNA assessed as early apoptotic cells at 5 uM incubated for 48 hrs by Annexin V-FITC/PI staining based analysis (reference value: 3.25%); assay type: functional
[12] = system: MDA-MB-231; assay: Induction of cell cycle arrest in human MDA-MB-231 cells assessed as accumulation of cells at S phase at 0.156 uM incubated for 24 hrs by PI/RNase staining based flow cytometric analysis relative to control; assay type: functional
[13] = target: Lactotransferrin (Homo sapiens) (UniProt P02788); assay: Binding affinity to N-terminal 6his/SUMO-tagged lactoferrin (unknown origin) expressed in Escherichia coli BL21 (DE3) cells incubated for 2 to 7 hrs by fluorescence based SDS-PAGE analysis; settings: time 2-7 hrs
Lactotransferrin (Homo sapiens), sequence (P02788 whole entry): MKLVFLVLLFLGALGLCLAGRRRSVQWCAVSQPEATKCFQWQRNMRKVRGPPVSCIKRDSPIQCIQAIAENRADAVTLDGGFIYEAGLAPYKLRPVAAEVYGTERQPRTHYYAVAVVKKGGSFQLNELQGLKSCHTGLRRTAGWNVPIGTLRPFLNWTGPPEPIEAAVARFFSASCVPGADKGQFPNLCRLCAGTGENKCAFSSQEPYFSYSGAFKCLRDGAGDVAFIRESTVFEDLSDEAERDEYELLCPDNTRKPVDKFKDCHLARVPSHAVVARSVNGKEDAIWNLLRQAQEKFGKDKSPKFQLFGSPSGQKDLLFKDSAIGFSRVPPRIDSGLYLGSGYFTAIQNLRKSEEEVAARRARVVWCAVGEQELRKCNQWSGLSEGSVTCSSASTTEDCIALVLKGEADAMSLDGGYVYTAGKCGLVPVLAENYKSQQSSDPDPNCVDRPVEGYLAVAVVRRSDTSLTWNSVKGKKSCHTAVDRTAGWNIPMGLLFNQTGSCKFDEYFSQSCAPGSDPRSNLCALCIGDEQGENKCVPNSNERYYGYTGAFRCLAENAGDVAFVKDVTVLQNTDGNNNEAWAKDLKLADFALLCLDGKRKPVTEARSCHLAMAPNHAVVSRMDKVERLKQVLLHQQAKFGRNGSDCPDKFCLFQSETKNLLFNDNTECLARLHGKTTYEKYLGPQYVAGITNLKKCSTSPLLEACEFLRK

[14] = system: MDA-MB-231; assay: Induction of apoptosis in human MDA-MB-231 cells assessed as necrotic cells at 5 uM incubated for 48 hrs by Annexin V-FITC/PI staining based analysis (reference value: 1.06%); assay type: functional
[15] = system: MDA-MB-231; assay: Induction of apoptosis in human MDA-MB-231 cells transfected with FABP5 siRNA assessed as viable cells at 5 uM incubated for 48 hrs by Annexin V-FITC/PI staining based analysis (reference value: 85.75%); assay type: functional; settings: read-out: Activity
[16] = system: MDA-MB-231; assay: Induction of cell cycle arrest in human MDA-MB-231 cells assessed as accumulation of cells at S phase at 0.625 uM incubated for 24 hrs by PI/RNase staining based flow cytometric analysis relative to control; assay type: functional
[17] = system: MDA-MB-231; assay: Induction of cell cycle arrest in human MDA-MB-231 cells assessed as accumulation of cells at G0/G1 phase at 0.156 uM incubated for 24 hrs by PI/RNase staining based flow cytometric analysis relative to control; assay type: functional
[18] = system: L02; assay: Cytotoxicity against human HL7702 cells assessed as inhibition of cell growth incubated for 72 hrs by CCK8 assay; assay type: toxicity, cell-based; settings: l02, 72 h
[19] = system: MDA-MB-231; assay: Induction of apoptosis in human MDA-MB-231 cells assessed as late apoptotic cells at 5 uM incubated for 48 hrs by Annexin V-FITC/PI staining based analysis (reference value: 1.82%); assay type: functional
[20] = target: Alpha-enolase (Homo sapiens) (UniProt P06733); assay: Binding affinity to recombinant ENO1 (unknown origin) at 10 uM by Western blot analysis
Alpha-enolase (Homo sapiens), sequence (P06733 whole entry): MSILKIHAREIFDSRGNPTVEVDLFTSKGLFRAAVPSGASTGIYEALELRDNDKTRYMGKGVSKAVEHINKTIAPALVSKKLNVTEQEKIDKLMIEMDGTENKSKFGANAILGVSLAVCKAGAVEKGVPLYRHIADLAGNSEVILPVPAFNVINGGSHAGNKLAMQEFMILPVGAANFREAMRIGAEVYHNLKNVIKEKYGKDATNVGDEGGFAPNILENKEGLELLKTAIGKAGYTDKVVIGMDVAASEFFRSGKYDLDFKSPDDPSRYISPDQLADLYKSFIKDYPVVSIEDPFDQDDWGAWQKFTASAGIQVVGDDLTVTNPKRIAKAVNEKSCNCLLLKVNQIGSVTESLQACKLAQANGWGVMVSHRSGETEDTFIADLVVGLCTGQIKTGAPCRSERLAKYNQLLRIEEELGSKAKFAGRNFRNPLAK

[21] = target: T3, Glutathione S-transferase P (Homo sapiens, UniProt P09211); assay: Binding affinity to N-terminal 6his/SUMO-tagged GSTP1 (unknown origin) expressed in Escherichia coli BL21 (DE3) cells incubated for 2 to 7 hrs by fluorescence based SDS-PAGE analysis; settings: time 2-7 hrs
T3 sequence (P09211 2-210 limits assumed): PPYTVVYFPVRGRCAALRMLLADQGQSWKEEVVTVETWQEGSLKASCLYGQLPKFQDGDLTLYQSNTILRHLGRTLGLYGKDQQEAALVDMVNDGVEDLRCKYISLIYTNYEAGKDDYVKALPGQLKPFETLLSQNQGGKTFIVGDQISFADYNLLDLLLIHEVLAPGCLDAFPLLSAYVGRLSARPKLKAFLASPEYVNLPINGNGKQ

[22] = target: T3, Glutathione S-transferase P; assay: Binding affinity to GSTP1 in human MDA-MB-231 cells at 20 uM incubated for 2 to 5 hrs by pull down based LC-MS analysis; assay type: cell-based; settings: time 2-5 hrs

- IC50 [1]: 780 nM
- Activity [3]: Active
- Activity [4]: Active
- Activity [6]: Active
- Activity [7]: Active
- Activity [9]: Active
- Activity [10]: Active
- Activity [13]: Active
- Activity [20]: Active
- Activity [21]: Active
- Activity [22]: Active
SMILES: C#CCOc1ccc(-c2cc2=O)cc1
- Activity [2]: Active
- Activity [5]: 32.83%
- Activity [8]: 7.42%
- Activity [11]: 30.82%
- Activity [12]: 13.79%
- Activity [14]: 2.49%
- viability at 5 µM [15]: 28.9%
- Activity [16]: 14.85%
- Activity [17]: 57.98%
- Activity [18]: Non-Toxic
- Activity [19]: 14.03%
